Results taken from patent US20140155580A1, “TRANSGENIC AVES PRODUCING HUMAN POLYCLONAL ANTIBODIES” (Synageva BioPharma Corp., priority 2003, published 2014).

Test system: chicken embryonic stem cells
Assay: Titration kill curve: cES cells in culture exposed to puromycin or neomycin
Assay type: cell-based
Design: key to Morphology of cES cells: ES: ES cells are present.; diff: ES cells are differentiated.; gone: no morphologically recognizable cells are present
Method: In a preferred embodiment, the concentration of puromycin required for selecting transfected cells is calculated as a titration kill curve. Titration kill curves for chicken embryonic stem cells are established by exposing cells in culture to puromycin concentrations varying from 0.0 to 1.0 μg/ml for 10 days (Table 7) and neomycin concentrations varying from 0.0 to 200 μg/ml (Table 8). The medium is changed every 2 days and fresh puromycin or neomycin is added. […] Puromycin concentrations of 0.3-1.0 μg/ml are used for selection of the transfected cultures. Neomycin concentrations over 40 μg/ml eliminated all cES cells within 7 days (Table 8).

COc1ccc(C[C@H](N)C(=O)N[C@H]2[C@@H](O)[C@H](n3cnc4c(N(C)C)ncnc43)O[C@@H]2CO)cc1 [Puromycin, puromycin]
Presence of ES cells in wells after exposure (0.3 μg/ml puromycin, 3 changes of medium with fresh puromycin over a six day period): absent from all wells
Morphology of cES cells (puromycin 0.1 μg/ml, day 1 under selection): ES
Morphology of cES cells (puromycin 0.1 μg/ml, day 2 under selection): ES
Morphology of cES cells (puromycin 0.1 μg/ml, day 3 under selection): ES
Morphology of cES cells (puromycin 0.1 μg/ml, day 4 under selection): ES
Morphology of cES cells (puromycin 0.1 μg/ml, day 5 under selection): ES
Morphology of cES cells (puromycin 0.1 μg/ml, day 6 under selection): ES
Morphology of cES cells (puromycin 0.1 μg/ml, day 7 under selection): ES
Morphology of cES cells (puromycin 0.1 μg/ml, day 8 under selection): ES
Morphology of cES cells (puromycin 0.1 μg/ml, day 9 under selection): ES
Morphology of cES cells (puromycin 0.1 μg/ml, day 10 under selection): ES
Morphology of cES cells (puromycin 0.2 μg/ml, day 1 under selection): ES
Morphology of cES cells (puromycin 0.2 μg/ml, day 2 under selection): ES
Morphology of cES cells (puromycin 0.2 μg/ml, day 3 under selection): ES
Morphology of cES cells (puromycin 0.2 μg/ml, day 4 under selection): ES
Morphology of cES cells (puromycin 0.2 μg/ml, day 5 under selection): ES
Morphology of cES cells (puromycin 0.2 μg/ml, day 6 under selection): ES
Morphology of cES cells (puromycin 0.2 μg/ml, day 7 under selection): ES
Morphology of cES cells (puromycin 0.2 μg/ml, day 8 under selection): ES
Morphology of cES cells (puromycin 0.2 μg/ml, day 9 under selection): ES
Morphology of cES cells (puromycin 0.2 μg/ml, day 10 under selection): ES
Morphology of cES cells (puromycin 0.25 μg/ml, day 1 under selection): ES
Morphology of cES cells (puromycin 0.25 μg/ml, day 2 under selection): ES
Morphology of cES cells (puromycin 0.25 μg/ml, day 3 under selection): ES
Morphology of cES cells (puromycin 0.25 μg/ml, day 4 under selection): ES
Morphology of cES cells (puromycin 0.25 μg/ml, day 5 under selection): ES
Morphology of cES cells (puromycin 0.25 μg/ml, day 6 under selection): diff
Morphology of cES cells (puromycin 0.25 μg/ml, day 7 under selection): diff
Morphology of cES cells (puromycin 0.3 μg/ml, day 1 under selection): ES
Morphology of cES cells (puromycin 0.3 μg/ml, day 2 under selection): ES
Morphology of cES cells (puromycin 0.3 μg/ml, day 3 under selection): diff
Morphology of cES cells (puromycin 0.3 μg/ml, day 6 under selection): gone
Morphology of cES cells (puromycin 0.3 μg/ml, day 7 under selection): gone
Morphology of cES cells (puromycin 0.3 μg/ml, day 8 under selection): gone
Morphology of cES cells (puromycin 0.3 μg/ml, day 9 under selection): gone
Morphology of cES cells (puromycin 0.3 μg/ml, day 10 under selection): gone
Morphology of cES cells (puromycin 0.4 μg/ml, day 1 under selection): ES
Morphology of cES cells (puromycin 0.4 μg/ml, day 2 under selection): diff
Morphology of cES cells (puromycin 0.4 μg/ml, day 3 under selection): gone
Morphology of cES cells (puromycin 0.4 μg/ml, day 4 under selection): gone
Morphology of cES cells (puromycin 0.4 μg/ml, day 5 under selection): gone
Morphology of cES cells (puromycin 0.4 μg/ml, day 6 under selection): gone
Morphology of cES cells (puromycin 0.4 μg/ml, day 7 under selection): gone
Morphology of cES cells (puromycin 0.4 μg/ml, day 8 under selection): gone
Morphology of cES cells (puromycin 0.4 μg/ml, day 9 under selection): gone
Morphology of cES cells (puromycin 0.4 μg/ml, day 10 under selection): gone
Morphology of cES cells (puromycin 0.5 μg/ml, day 1 under selection): diff
Morphology of cES cells (puromycin 0.5 μg/ml, day 2 under selection): gone
Morphology of cES cells (puromycin 0.5 μg/ml, day 3 under selection): gone
Morphology of cES cells (puromycin 0.5 μg/ml, day 4 under selection): gone
Morphology of cES cells (puromycin 0.5 μg/ml, day 5 under selection): gone
Morphology of cES cells (puromycin 0.5 μg/ml, day 6 under selection): gone
Morphology of cES cells (puromycin 0.5 μg/ml, day 7 under selection): gone
Morphology of cES cells (puromycin 0.5 μg/ml, day 8 under selection): gone
Morphology of cES cells (puromycin 0.5 μg/ml, day 9 under selection): gone
Morphology of cES cells (puromycin 0.5 μg/ml, day 10 under selection): gone
Morphology of cES cells (puromycin 0.6 μg/ml, day 1 under selection): diff
Morphology of cES cells (puromycin 0.6 μg/ml, day 2 under selection): gone
Morphology of cES cells (puromycin 0.6 μg/ml, day 3 under selection): gone
Morphology of cES cells (puromycin 0.6 μg/ml, day 4 under selection): gone
Morphology of cES cells (puromycin 0.6 μg/ml, day 5 under selection): gone
Morphology of cES cells (puromycin 0.6 μg/ml, day 6 under selection): gone
Morphology of cES cells (puromycin 0.6 μg/ml, day 7 under selection): gone
Morphology of cES cells (puromycin 0.6 μg/ml, day 8 under selection): gone
Morphology of cES cells (puromycin 0.6 μg/ml, day 9 under selection): gone
Morphology of cES cells (puromycin 0.6 μg/ml, day 10 under selection): gone
Morphology of cES cells (puromycin 0.7 μg/ml, day 1 under selection): diff
Morphology of cES cells (puromycin 0.7 μg/ml, day 2 under selection): gone
Morphology of cES cells (puromycin 0.7 μg/ml, day 3 under selection): gone
Morphology of cES cells (puromycin 0.7 μg/ml, day 4 under selection): gone
Morphology of cES cells (puromycin 0.7 μg/ml, day 5 under selection): gone
Morphology of cES cells (puromycin 0.7 μg/ml, day 6 under selection): gone
Morphology of cES cells (puromycin 0.7 μg/ml, day 7 under selection): gone
Morphology of cES cells (puromycin 0.7 μg/ml, day 8 under selection): gone
Morphology of cES cells (puromycin 0.7 μg/ml, day 9 under selection): gone
Morphology of cES cells (puromycin 0.7 μg/ml, day 10 under selection): gone
Morphology of cES cells (puromycin 0.8 μg/ml, day 1 under selection): gone
Morphology of cES cells (puromycin 0.8 μg/ml, day 2 under selection): gone
Morphology of cES cells (puromycin 0.8 μg/ml, day 3 under selection): gone
Morphology of cES cells (puromycin 0.8 μg/ml, day 4 under selection): gone
Morphology of cES cells (puromycin 0.8 μg/ml, day 5 under selection): gone
Morphology of cES cells (puromycin 0.8 μg/ml, day 6 under selection): gone
Morphology of cES cells (puromycin 0.8 μg/ml, day 7 under selection): gone
Morphology of cES cells (puromycin 0.8 μg/ml, day 8 under selection): gone
Morphology of cES cells (puromycin 0.8 μg/ml, day 9 under selection): gone
Morphology of cES cells (puromycin 0.8 μg/ml, day 10 under selection): gone
